# According to PMC3072459 (Journal of medicinal chemistry, 2011):
# Key:
# [1] = target: rat nNOS (Rattus norvegicus, UniProt P29476); assay: NOS inhibition, hemoglobin; type: biochemical
# [2] = target: nNOS in 293T cells overexpressing nNOS (293T/nNOS cells) (Rattus norvegicus, UniProt P29476); assay: Cell-based nNOS inhibition assay; details: for activity in the cell-based assay (in words): A23187 (5 μM), 8 h
# [3] = rodent in vivo studies; cited from earlier work
smiles,measurement,setting,value
"Cc1cc(C)nc(NCc2ccc3cc(CNc4cc(C)cc(C)n4)ccc3c2)c1 [3a, N,N'-(Naphthalene-2,6-diylbis(methylene))bis(4,6-dimethylpyridin-2-amine)]",binding / inhibition of nNOS (in words),[1],poor binding
"Cc1cc(N)nc(CCc2ccc3cc(CCc4cc(C)cc(N)n4)ccc3c2)c1 [3b, 6,6'-(2,2'-(Naphthalene-2,6-diyl)bis(ethane-2,1-diyl))bis(4-methylpyridin-2-amine)]",binding / inhibition of nNOS (in words),[1],sub-micromolar binding affinity
"Cc1cc(N)nc(CCc2ccc3ccc(CCc4cc(C)cc(N)n4)cc3c2)c1 [3c, 6,6'-(2,2'-(Naphthalene-2,7-diyl)bis(ethane-2,1-diyl))bis(4-methylpyridin-2-amine)]",binding / inhibition of nNOS (in words),[1],sub-micromolar binding affinity
"Cc1cc(N)nc(CCc2ccc3ccc(CCc4cc(C)nc(N)c4)cc3c2)c1 [3d, 4-(2-(7-(2-(6-Amino-4-methylpyridin-2-yl)ethyl)naphthalen-2-yl)ethyl)-6-methylpyridin-2-amine]",binding / inhibition of nNOS (in words),[1],poor inhibitor
"Cc1cc(N)nc(CCc2cccc(CCc3cc(C)cc(N)n3)c2)c1 [3g, 6,6'-(2,2'-(1,3-Phenylene)bis(ethane-2,1-diyl))bis(4-methylpyridin-2-amine)]",activity in the cell-based assay (in words),[2],almost no activity
"Cc1cc(N)nc(CCc2cccc(CCc3cc(C)nc(N)c3)c2)c1 [3h, 4-(3-(2-(6-Amino-4-methylpyridin-2-yl)ethyl)phenethyl)-6-methylpyridin-2-amine]",activity in the cell-based assay (in words),[2],almost no activity
"Cc1cc(CCc2cccc(CCc3cc(C)nc(N)c3)c2)cc(N)n1 [3i, 4,4'-(2,2'-(1,3-Phenylene)bis(ethane-2,1-diyl))bis(6-methylpyridin-2-amine)]",binding / inhibition of nNOS (in words),[1],binds rather poorly
"Cc1cc(N)nc(CCc2cncc(CCc3cc(C)cc(N)n3)c2)c1 [3j, 6,6'-(2,2'-(Pyridine-3,5-diyl)bis(ethane-2,1-diyl))bis(4-methylpyridin-2-amine)]","membrane penetration ability (in words, from cell-based assay)",[2],good membrane penetration ability
"Cc1cc(N)nc(CCc2cncc(CCc3cc(C)nc(N)c3)c2)c1 [3k, 4-(2-(5-(2-(6-Amino-4-methylpyridin-2-yl)ethyl)pyridin-3-yl)ethyl)-6-methylpyridin-2-amine]","membrane penetration ability (in words, from cell-based assay)",[2],good membrane penetration ability
Cc1cc(N)nc(C[C@H]2CNC[C@H]2NCCNCCc2cccc(F)c2)c1 [compound 1],ability to penetrate the blood brain barrier (BBB),[3],poor ability to penetrate the blood brain barrier
Cc1cc(N)nc(C[C@@H]2CNC[C@@H]2NCCNCCc2cccc(F)c2)c1 [compound 2],ability to penetrate the blood brain barrier (BBB),[3],poor ability to penetrate the blood brain barrier
